One test deals with T1, recombinant His-tag Y220C p53 DBD protein (Homo sapiens, UniProt P04637, Y220C).
T1 construct: recombinant His-tag Y220C p53 DBD protein (amino acids #˜94-312)
Put plainly: In vitro DNA binding activity assay (TR-FRET): binding of His-tag Y220C p53 DBD to biotin-labeled consensus DNA. The class given is biochemical. To be noted: SC150 = concentration to increase DNA binding by […], His-tag Y220C p53 DBD, biotin-labeled consensus DNA. The protocol:
DNA binding activity of the compounds was measured using a TR-FRET (Time-Resolved Fluorescence Resonance Energy Transfer) assay in which recombinant His-tag Y220C p53 DBD protein binds to biotin-labeled consensus DNA. Binding of recombinant His-tag Y220C p53 DBD protein and biotin-labeled consensus DNA was registered by the FRET (fluorescence resonance energy transfer) between allophycocyanin (APC) conjugated anti-His tag antibody and Europium-(Eu) conjugated Streptavidin.
The compounds of TABLES 1-9 (2 mM stock in dimethylsulfoxide) were diluted 3-fold in series in dimethylsulfoxide. 1.2 μL of a compound solution was added to each well of 384-well polypropylene black plates (NUNC). Thirty μL per well of 181 nM recombinant His-tag Y220C p53 DBD protein (amino acids #˜94-312; SEQ ID NO: 1) and 6.1 nM of APC conjugated anti-His tag antibody (Columbia Biosciences) in ice-cold Assay Buffer 1 (50 mM Tris-HCl, pH 7.4, 75 mM KCl, 0.75 mM DTT and 0.2 mg/ml, BSA) were added. As a background control. 30 μL of Assay Buffer 1 containing 6.1 nM of APC anti-His antibody (No Y220C protein) was also added into a second set of serially diluted compound plates. The samples were spun by centrifuge at 1,200 rpm (Eppendorf 5810R Plate centrifuge) for 1 minute and incubated at room temperature (20° C.) for 15 min. The samples were then further incubated at either 27° C. or 29° C. for 60 min. […] The samples were spun by centrifuge at 1,200 rpm for 1 min and incubated at room temperature (20° C.) for 20 min. Assay signals were monitored by reading excitation at 340 nm, and emission fluorescence at 615 nm and 665 nm on an Envision® reader. Normalized TR-FRET (time-resolved fluorescence resonance energy transfer) assay signal (Rn) was calculated by the formula: Rn=[(A−Ba−C×(D−Bd))/(D−Bd)]×(D−Bd) Wherein: • A is the fluorescence intensity of the sample at 665 nm; • D is the fluorescence intensity of the sample at 615 nm; • Ba and Bd are plate backgrounds at 665 nm and 615 nm, respectively; and • Dc is the fluorescence intensity of 0.67 nM Eu-SA in the assay buffer at 615 nm.
The cross-talk factor (C) was determined by the following formula: C=(Ac−Ba)/(Dc−Bd) wherein Ac is the fluorescence intensity of 0.67 nM Europium (Eu) conjugated Streptavidin in the assay buffer at 665 nm.
As to `COc1ccccc1C(=O)NCc1nnc(-c2cc3c(N[C@H]4CCN(C)C[C@H]4F)cccc3n2CC(F)(F)F)o1` (racemic) [Compound 115B, (+/−)-N-{[5-(4-{[(3R,4S)-3-fluoro-1-methylpiperidin-4-yl]amino}-1-(2,2,2-trifluoroethyl)-1H-indol-2-yl)-1,3,4-oxadiazol-2-yl]methyl}-2-methoxybenzamide], the “Y220C SC150 (μM)” value is “** (** = 0.1 μM ≤ SC150 < 0.5 μM)”.

As for `COCCn1cccc1C(=O)NCc1nc(-c2cc3c(N[C@@H]4CCN(C)C[C@@H]4F)cccc3n2CC(F)(F)F)no1` [Compound 538B, N-{[3-(4-{[(3S,4R)-3-fluoro-1-methylpiperidin-4-yl]amino}-1-(2,2,2-trifluoroethyl)-1H-indol-2-yl)-1,2,4-oxadiazol-5-yl]methyl}-1-(2-methoxyethyl)-1H-pyrrole-2-carboxamide], the “Y220C SC150 (μM)” value is reported as “* (* = 0 μM ≤ SC150 < 0.1 μM)”.

As for `CC(C)(C)n1ccc(C(=O)NCc2nc(-c3cc4c(N[C@@H]5CCNC[C@@H]5F)cccc4n3CC(F)(F)F)no2)c1` [Compound 502B, 1-tert-butyl-N-{[3-(4-{[(3S,4R)-3-fluoropiperidin-4-yl]amino}-1-(2,2,2-trifluoroethyl)-1H-indol-2-yl)-1,2,4-oxadiazol-5-yl]methyl}-1H-pyrrole-3-carboxamide], the “Y220C SC150 (μM)” value was “* (* = 0 μM ≤ SC150 < 0.1 μM)”.

Take `CN1CC[C@@H](Nc2cccc3c2cc(-c2nc(CNC(=O)C4CC4)cs2)n3CC(F)(F)F)[C@@H](F)C1` (racemic) [Compound 89B, N-{[2-(4-{[(3S,4R)-3-fluoro-1-methylpiperidin-4-yl]amino}-1-(2,2,2-trifluoroethyl)-1H-indol-2-yl)-1,3-thiazol-4-yl]methyl}cyclopropanecarboxamide]: the “Y220C SC150 (μM)” value is listed as “**** (**** = 1 μM ≤ SC150 < 10 μM)”.

In the case of `CN1CC[C@@H](Nc2cccc3c2cc(-c2noc(CNC(=O)c4cccc(N(C)C)c4)n2)n3CC(F)(F)F)[C@@H](F)C1` [Compound 242B, 3-(dimethylamino)-N-{[3-(4-{[(3S,4R)-3-fluoro-1-methylpiperidin-4-yl]amino}-1-(2,2,2-trifluoroethyl)-1H-indol-2-yl)-1,2,4-oxadiazol-5-yl]methyl}benzamide], the “Y220C SC150 (μM)” value is listed as “* (* = 0 μM ≤ SC150 < 0.1 μM)”.

Consider `CN1CCC(Nc2cccc3c2cc(-c2noc(CNC(=O)c4cccs4)n2)n3CC(F)(F)F)CC1` [Compound 143B, N-[(3-{4-[(1-methylpiperidin-4-yl)amino]-1-(2,2,2-trifluoroethyl)-1H-indol-2-yl}-1,2,4-oxadiazol-5-yl)methyl]thiophene-2-carboxamide], for which the “Y220C SC150 (μM)” value is “* (* = 0 μM ≤ SC150 < 0.1 μM)”.

For the molecule `CN1CC[C@@H](Nc2cccc3c2cc(-c2noc(CNC(=O)c4ccc(C5(C)CC5)s4)n2)n3CC(F)(F)F)[C@@H](F)C1` [Compound 446B], the “Y220C SC150 (μM)” value is on record as “* (* = 0 μM ≤ SC150 < 0.1 μM)”.

The test is the same for the next values; noted with them: concentration to increase DNA binding by […], incubated at either 27° C. or 29° C. for 60 min.
Regarding `COCC(O)CN1CCC(Nc2cccc3c2cc(-c2ccc4c[nH]nc4c2)n3CC(F)(F)F)CC1` (stereo not shown) [Compound 48A, 1-(4-{[2-(2H-indazol-6-yl)-1-(2,2,2-trifluoroethyl)-1H-indol-4-yl]amino}piperidin-1-yl)-3-methoxypropan-2-ol], the “SC150 (μM)” value is “+++ (+++ = 5 μM ≤ SC150 < 10 μM)”.

With `N#Cc1ccc(C(=O)NCc2ccc(-c3cc4c(NC5CCS(=O)(=O)CC5)cccc4n3CC(F)(F)F)cc2)cc1` [Compound 16A, 4-cyano-N-[(4-{4-[(1,1-dioxo-1λ^6-thian-4-yl)amino]-1-(2,2,2-trifluoroethyl)-1H-indol-2-yl}phenyl)methyl]benzamide], the “SC150 (μM)” value is “++ (++ = 2 μM ≤ SC150 < 5 μM)”.

As to `CS(=O)(=O)c1ccc(NCc2ccc(-c3cc4c(NC5CCS(=O)(=O)CC5)cccc4n3CC(F)(F)F)cc2)cc1` [Compound 8A, 4-{[2-(4-{[(4-methanesulfonylphenyl)amino]methyl}phenyl)-1-(2,2,2-trifluoroethyl)-1H-indol-4-yl]amino}-1λ^6-thiane-, 1-dione], the “SC150 (μM)” value is “+ (+ = 0 μM ≤ SC150 < 2 μM)”.

Source of the values: patent US11807644B2 (PMV Pharmaceuticals, Inc., priority 2020, dated 2023).
